The structures appear in SMILES notation. Where two headings read alike, the source gives them in different places. Positions of bridges follow the written chain, without caps; N, C: chain ends. Residues, ends and D or L forms follow the SMILES beside them.

Four molecules from publication PMC5100903, “Tissue Kallikrein Inhibitors Based on the Sunflower Trypsin Inhibitor Scaffold – A Potential Therapeutic Intervention for Skin Diseases” (PLoS ONE, 2016) can be followed below.

Assay [1] has as its target T1, Human Plasma Plasmin (Homo sapiens, UniProt P00747).
T1 construct: human plasma plasmin (purified from human plasma); purchased BioVision; host or cells: human plasma
The assay can be described thus: biochemical. The method, then:
(§1) All assays were performed on 96-well microplates and the change in relative fluorescence unit (RFU) was measured by fluorescence spectrometer (BMG FLUOstar OPTIMA). The excitation/emission wavelength was 360/460 nm for the substrate Boc-VPR-AMC (Bachem AG, Hauptstrasse, Switzerland) and MeOSuc-AAPV-AMC (Bachem AG, Hauptstrasse, Switzerland) and 485/520 nm for BODIPY_FL casein (Invitrogen, Carlsbad, US). Stock solution of Boc-VPR-AMC was prepared by dissolving the solid in dimethyl sulfoxide to 100 mM and 10 mM for MeOSuc-AAPV. For BODIPY_FL casein, it was reconstituted to 1 mg/mL in 1xPBS. […] The % of inhibition was calculated by the following equation: % of Inhibition=(1−(Sample RFU − Min RFU)/(Max RFU − Min RFU)) X100
(§2) Each inhibition curves were done in triplicates with a minimum of five concentration points fitted. Fitting of each curve was done using SigmaPlot with the Four Parameter Logistic Function and the IC50 calculated. […] All tested compounds were reconstituted to stock solution in water.
(§3) The diluent for all the tested compounds, protein and substrate (except KLK7, which was done with 10 mM Tris pH 7.8) was 1xPBS pH 8.0–8.9. The serially diluted ligands were mixed with diluted bovine trypsin (Sigma, Dorset, U.K.) or activated KLK14, or KLK5, or activated KLK8 or matriptase (catalytic domain only, >90% purity by SDS-PAGE, endotoxin <0.1 ng/μg, R&D, Minneapolis, U.S.) or activated KLK7 or human neutrophil elastase (purified from human plasma, >95% purity by SDS-PAGE, Abcam, Cambridge, U.K.) or porcine pancreatic elastase 1 (Sigma, Dorset, U.K.) or human plasma kallikrein or human plasma plasmin (purified from human plasma, ≥95% purity by SDS-PAGE, BioVision, Milpitas, U.S.). 20μL of the ligand-protein mixture was pipetted to a well of a 96-well microplate in triplicates. The reaction was started by addition of 90–100 μL of the diluted substrate solution (contained 0.05% v/v Brij35) and the plate incubated at 25°C but 37°C for KLK7. RFU reading for each well was taken 6 minutes (trypsin) or 15 minutes (KLK14, KLK5, KLK8, matriptase, human neutrophil elastase, porcine pancreatic elastase 1, plasma kallikrein and plasmin) or 20 hours (KLK7) after substrate addition.

Assay [2] addresses T2, Matriptase (catalytic domain only) (Homo sapiens, UniProt Q9Y5Y6).
T2 construct: matriptase (catalytic domain only, >90% purity by SDS-PAGE); purchased R&D
T2 sequence (Q9Y5Y6 615-854 limits assumed): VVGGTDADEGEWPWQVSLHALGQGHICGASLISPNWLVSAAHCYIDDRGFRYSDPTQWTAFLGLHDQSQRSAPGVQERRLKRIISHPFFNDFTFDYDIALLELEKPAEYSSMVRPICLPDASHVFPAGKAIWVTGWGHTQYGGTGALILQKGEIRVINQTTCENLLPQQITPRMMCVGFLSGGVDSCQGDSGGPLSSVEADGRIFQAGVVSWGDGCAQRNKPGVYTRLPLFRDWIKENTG
As to the kind of experiment: biochemical. As for the experimental part:
as §1, §2, §3

Assay [3] has as its target T3, Human Neutrophil Elastase (Homo sapiens, UniProt P08246).
T3 construct: human neutrophil elastase (purified from human plasma); purchased Abcam; host or cells: human plasma (so in the source)
T3 sequence (P08246 30-247 limits assumed): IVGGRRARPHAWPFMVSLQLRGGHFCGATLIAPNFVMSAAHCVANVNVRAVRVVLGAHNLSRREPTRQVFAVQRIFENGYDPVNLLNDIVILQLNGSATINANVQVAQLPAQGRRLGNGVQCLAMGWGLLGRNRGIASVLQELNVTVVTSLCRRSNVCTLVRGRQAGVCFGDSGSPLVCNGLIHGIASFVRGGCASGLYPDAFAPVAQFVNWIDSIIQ
The assay can be described thus: Human neutrophil elastase inhibition, MeOSuc-AAPV-AMC assay. Format: biochemical. The note with it: read-out: % inhibition of Human Neutrophil Elastase. As for the experimental part: as §1, §2, §3

Assay [4] has as its target T4, Bovine Trypsin (Bos taurus, UniProt P00760).
T4 construct: purchased Sigma
T4 sequence (P00760 24-246): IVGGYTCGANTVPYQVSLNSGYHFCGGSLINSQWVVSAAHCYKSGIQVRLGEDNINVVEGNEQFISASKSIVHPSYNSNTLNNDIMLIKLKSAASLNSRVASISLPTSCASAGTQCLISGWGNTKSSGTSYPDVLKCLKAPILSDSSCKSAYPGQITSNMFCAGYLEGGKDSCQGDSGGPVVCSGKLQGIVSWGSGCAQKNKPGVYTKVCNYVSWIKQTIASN
The assay can be described thus: biochemical. As for the experimental part: All assays were performed on 96-well microplates and the change in relative fluorescence unit (RFU) was measured by fluorescence spectrometer (BMG FLUOstar OPTIMA). […] Stock solution of Boc-VPR-AMC was prepared by dissolving the solid in dimethyl sulfoxide to 100 mM and 10 mM for MeOSuc-AAPV. For BODIPY_FL casein, it was reconstituted to 1 mg/mL in 1xPBS. […] The % of inhibition was calculated by the following equation: % of Inhibition=(1−(Sample RFU − Min RFU)/(Max RFU − Min RFU)) X100
as §2
The diluent for all the tested compounds, protein and substrate (except KLK7, which was done with 10 mM Tris pH 7.8) was 1xPBS pH 8.0–8.9. […] 20μL of the ligand-protein mixture was pipetted to a well of a 96-well microplate in triplicates. The reaction was started by addition of 90–100 μL of the diluted substrate solution (contained 0.05% v/v Brij35) and the plate incubated at 25°C but 37°C for KLK7. RFU reading for each well was taken 6 minutes (trypsin) or 15 minutes (KLK14, KLK5, KLK8, matriptase, human neutrophil elastase, porcine pancreatic elastase 1, plasma kallikrein and plasmin) or 20 hours (KLK7) after substrate addition.

[5] abbreviates: enzyme 24 nM, Boc-VPR-AMC 42 μM, 25°C, 15 minutes.
Where [6] appears, read: at 10 μM, enzyme 10 nM, MeOSuc-AAPV-AMC 41 μM.

T1 sequence (P00747 581-810 limits assumed): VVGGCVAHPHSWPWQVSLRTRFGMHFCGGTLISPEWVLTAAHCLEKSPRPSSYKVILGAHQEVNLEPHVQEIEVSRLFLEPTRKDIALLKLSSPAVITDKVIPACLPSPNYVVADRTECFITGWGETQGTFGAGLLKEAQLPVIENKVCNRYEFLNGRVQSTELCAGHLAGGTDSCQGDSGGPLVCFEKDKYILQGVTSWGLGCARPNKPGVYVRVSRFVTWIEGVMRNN
T1 sequence (P00747 98-580 partner limits assumed): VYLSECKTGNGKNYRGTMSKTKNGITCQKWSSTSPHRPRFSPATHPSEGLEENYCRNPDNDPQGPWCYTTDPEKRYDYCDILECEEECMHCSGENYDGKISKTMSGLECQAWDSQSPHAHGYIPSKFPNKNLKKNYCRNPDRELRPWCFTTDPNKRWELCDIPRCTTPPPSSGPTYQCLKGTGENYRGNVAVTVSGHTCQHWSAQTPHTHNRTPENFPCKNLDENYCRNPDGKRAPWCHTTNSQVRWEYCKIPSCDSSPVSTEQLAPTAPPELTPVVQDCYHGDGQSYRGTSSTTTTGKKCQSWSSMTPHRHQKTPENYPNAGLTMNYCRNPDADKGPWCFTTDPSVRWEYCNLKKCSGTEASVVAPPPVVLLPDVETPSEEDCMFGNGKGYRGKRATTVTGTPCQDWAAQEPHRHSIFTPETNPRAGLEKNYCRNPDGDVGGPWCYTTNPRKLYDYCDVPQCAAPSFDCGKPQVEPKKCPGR

In general, IC50 refers to the point on the concentration scale where inhibition reaches its midpoint. Low readings indicate higher potency, high ones lower potency. As usually defined, the inhibition is the share of the control response that was lost under treatment. Consider `CC[C@H](C)[C@@H]1NC(=O)[C@H](CO)NC(=O)[C@H](CCCCN)NC(=O)[C@H]([C@@H](C)O)NC(=O)[C@@H]2CSSC[C@H](NC(=O)[C@H](Cc3c[nH]cn3)NC(=O)[C@@H]3CCCN3C(=O)[C@@H]3CCCN3C1=O)C(=O)N[C@@H](Cc1ccccc1)C(=O)N1CCC[C@H]1C(=O)N[C@@H](CC(=O)O)C(=O)NCC(=O)N[C@@H](CCCNC(=N)N)C(=O)N2` [Analogue I10H] (cyclo(CFPDGRCTKSIPPH); disulfide 1-7), for which the half-inhibitory concentration (IC50) in assay [1] (setting [5]) was found to be 161 ± 6 nM; in assay [2] (enzyme 10 nM, Boc-VPR-AMC 21 μM, 25°C, 15 minutes), 2240 ± 567 nM; in assay [4] (enzyme 10 nM, Boc-VPR-AMC 21 μM, 25°C, 6 minutes) it was 46 ± 2 nM. Besides, in assay [3] (setting [6]), the inhibition at 10 µM was 0%.

Regarding `CC[C@H](C)[C@@H]1NC(=O)[C@@H]2CCCN2C(=O)[C@@H]2CCCN2C(=O)[C@H]([C@@H](C)CC)NC(=O)[C@H](CO)NC(=O)[C@H](CCCCN)NC(=O)[C@H]([C@@H](C)O)NC(=O)[C@@H]2CSSC[C@H](NC1=O)C(=O)N[C@@H](Cc1ccccc1)C(=O)N1CCC[C@H]1C(=O)N[C@@H](CC(=O)O)C(=O)NCC(=O)N[C@@H](CCCNC(=N)N)C(=O)N2` [Native SFTI, Sunflower Trypsin Inhibitor 1, reference compound], the IC50 in assay [1] (setting [5]) was 24 ± 4 nM; in assay [2], 1250 ± 57 nM. Further, the inhibition at 10 µM in assay [3] (setting [6]) is 0%.

Turning to `CC[C@H](C)[C@@H]1NC(=O)[C@H](CO)NC(=O)[C@H](CCCCN)NC(=O)[C@H]([C@@H](C)O)NC(=O)[C@@H]2CSSC[C@H](NC(=O)[C@H](Cc3c[nH]cn3)NC(=O)[C@@H]3CCCN3C(=O)[C@@H]3CCCN3C1=O)C(=O)N[C@@H](Cc1c[nH]c3ccccc13)C(=O)N1CCC[C@H]1C(=O)N[C@@H](CC(=O)O)C(=O)NCC(=O)N[C@@H](CCCNC(=N)N)C(=O)N2` [Analogue 2] (cyclo(CTKSIPPHCWPDGR); disulfide 1-9), the IC50 in assay [1] is 25 ± 1 nM; in assay [2], 206 ± 10 nM; in assay [4], 20 ± 0.2 nM. For the same molecule, the inhibition at 10 µM in assay [3] is 0%.

On to `CC[C@H](C)[C@@H]1NC(=O)[C@H](CO)NC(=O)[C@H](CCCNC(=N)N)NC(=O)[C@H]([C@@H](C)O)NC(=O)[C@@H]2CSSC[C@H](NC(=O)[C@H](Cc3c[nH]cn3)NC(=O)[C@@H]3CCCN3C(=O)[C@@H]3CCCN3C1=O)C(=O)N[C@@H](Cc1c[nH]c3ccccc13)C(=O)N1CCC[C@H]1C(=O)N[C@@H](CC(=O)O)C(=O)NCC(=O)N[C@@H](CCCNC(=N)N)C(=O)N2` [Analogue 6] (cyclo(CTRSIPPHCWPDGR); disulfide 1-9), for which the IC50 in assay [1] was 407 ± 8 nM; in assay [2] it was 381 ± 12 nM; in assay [4] it was 23 ± 1 nM. The inhibition at 10 µM in assay [3] turned out to be 0%.
